In PMC8191290, “Substrate specificities and reaction kinetics of the yeast oligosaccharyltransferase isoforms” (The Journal of Biological Chemistry, 2021):

Biological target: T1, OST6 complex (Saccharomyces cerevisiae, UniProt P39007)
T1 construct: were purified separately from strains expressing only one type of complex; made in house; host or cells: Saccharomyces cerevisiae, BY4742-derived strain ost3::LEU2MX6 OST4-1D4::kanMX6 YEp352-OST6
Experiment: In vitro glycosylation assay, acceptor peptides, OST6 complex
Assay type: biochemical
Conditions: for OST6 complex activity compared with OST3 complex, in words: synthetic chitobiose-containing LLO, TAMRA-YANATS with 50 μM LLO C20 (Fig. 5A), TAMRA-DANYTK data not shown
Description: Figure 5 OST3 complex turns over both glycosylation substrates faster than the OST6 complex, but with similar substrate affinities.A, enzyme activity of OST3 and OST6 complexes. Reactions were performed with 25 μM peptide TAMRA-YANATS, 50 μM LLO C20, and varying concentrations of purified OST3 complex (blue) or OST6 complex (red). Glycopeptide product was measured by UPLC and initial rates of reaction were determined by linear regression of the initial phase of the reaction. Turnover rates were determined by linear regression of the initial rates of reaction measured across the enzyme concentrations of 0.01–0.1 μM for OST3 complex and 0.1–0.5 μM for OST6 complex. Error bars indicate standard deviations from the mean of three reaction sets (n = 3). B, synthetic LLO preferences of OST3 and OST6 complexes. Reactions were performed with 25 μM peptide TAMRA-YANATS, 50 μM of the indicated LLO (C15, C20, or C25) and 0.09 μM of purified OST3 complex (blue) or 0.5 μM OST6 complex (red). Turnover rates were determined by linear regression of the initial phase of the reaction and accounting for the enzyme concentration in the reaction. Error bars indicate standard deviations from the mean of three reactions (n = 3). C, quantification of kinetic parameters for the synthetic LLO C20. Reactions were performed with 25 μM peptide TAMRA-YANATS, varying concentrations of synthetic LLO C20, and either 0.1 μM purified OST3 complex (blue) or 0.5 μM OST6 complex (red). Turnover rates were determined by linear regression of the initial phase of the reaction and accounting for the enzyme concentration in the reaction. The mean of three reactions is shown and the data were fitted by nonlinear regression according to the Michaelis–Menten formula (R^2 = 0.9685 (OST3 complex), 0.9720 (OST6 complex)) using Prism. Error bars indicate standard deviations from the mean (n = 3). Asterisk indicates a data point not included in the Michaelis–Menten fitting, due to poor fitting. D, quantification of kinetic parameters for the peptide TAMRA-YANATS. Reactions were performed with 100 μM synthetic LLO C20, varying concentrations of peptide TAMRA-YANATS, and 0.1 μM purified OST3 complex (blue) or OST6 complex (red). Turnover rates were determined by linear regression of the initial phase of the reaction and accounting for the enzyme concentration in the reaction. The mean of three reactions is shown and the data were fitted by nonlinear regression according to the Michaelis–Menten formula (R^2 = 0.9794 (OST3 complex), 0.9214 (OST6 complex)) using Prism. Error bars indicate standard deviations from the mean (n = 3). Asterisk indicates data points not included in the Michaelis–Menten fitting, due to poor fitting. E, SDS-PAGE (14 % acrylamide) silver staining of 0.2 μg purified OST3 complex, OST6 complex, and OST3 complex purified from alg6Δ cells. Multiple bands of Ost1p and Wbp1p represent the fully and hypoglycosylated forms of the proteins. Ost4p is tagged with the 1D4 epitope for purification. F, enzyme activity of OST complexes. Reactions were performed with 100 μM peptide TAMRA-YANATS, 50 μM LLO C20, and varying concentrations from 0.1 to 0.3 μM of purified OST3 complex, OST6 complex, or OST3 complex purified from alg6Δ cells. Turnover rates were determined as in A by linear regression of the initial rates of reaction across the enzyme concentrations of 0.1–0.3 μM for each OST. Error bars indicate the standard deviation from the mean turnover rate of three reaction sets (n = 3).
TAMRA-labeled peptides with 5-TAMRA at the N-terminus and an amide group at the C-terminus were synthesized by WatsonBio Sciences. Unlabeled peptides (Table S1) were synthesized by Genscript Corp. and were designed so that the asparagine of the glycosylation sequon was in the middle (except for Peptide 8). Lyophilized peptides were dissolved in dimethyl sulfoxide (DMSO), unless specified otherwise, to a 3 mM stock solution and further diluted in ddH2O for reactions. […]

| Substance | OST6 complex activity compared with OST3 complex, in words | kcat/KM (0.1 μM OST6 complex, 100 μM LLO C20) [min^-1 μM^−s1] | kcat (apparent) (0.1 μM OST6 complex, 100 μM LLO C20, varying peptide, 30 °C, n = 3) [s⁻¹] | Km (0.1 μM OST6 complex, 100 μM LLO C20, varying peptide, 30 °C, n = 3, read-out: KM (apparent)) [µM] | affinity for the peptide substrate, OST6 compared with OST3 complex, in words (100 μM LLO C20) | peptide turnover rate of OST6 complex compared with OST3 complex (100 μM LLO C20, TAMRA-YANATS varied) |
| --- | --- | --- | --- | --- | --- | --- |
| TAMRA-DANYTK-NH2 [fluorescently labeled hexapeptide TAMRA-DANYTK-NH2 as the acceptor peptide, reference compound] | reduced | – | – | – | – | – |
| TAMRA-YANATS [shorter version of Peptide 5 of only six amino acid residues (TAMRA-YANATS)] | drastically reduced | 0.05 | 0.0383 ± 0.0033 | 44.8 ± 5.7 | similar | reduced six times |
